{"source": "patent US4853384A", "about": "“1-carbonyl derivatives of 4-aryl-4-aryloxypiperidines” (Hoechst-Roussel Pharmaceuticals Inc., priority 1988, dated 1989)", "type_in_all_cases": "in vivo, mice (male, Charles River, CD-1)", "key": {"mice [1]": {"system": "mice", "test": "Metrazol lethality assay (MTZ), anticonvulsant activity", "settings": "Mus musculus, po", "method": "(§1) The compounds of this invention are also useful as anticonvulsants due to their anticonvulsant activity in mammals. Anticonvulsant activity is measured in male mice using the supramaximal electroshock (SES) assay described in Arch. Int. Pharmacodyn. 92, pp. 97-107, (1952) and the metrazol lethality assay (MTZ) described in J. Pharmacol. Exp. Ther., 81, 402 (1944).\nGroups of male mice (Charles River, CD-1), weighing 18 to 30 grams are employed in the Metrazol lethality assay. Test compounds are dissolved in distilled water or if insoluble, suspended in water, to which a surfactant, such as Tween-80 is added. The test compounds are administered orally, the administered dose being dissolved or suspended in 10 ml of solution or suspension per kg of animal body weight. Control animals (2 mice/group) receive water or water and Tween-80, i.e., the vehicle for administration of the test compound. Metrazol (pentylenetetrazol) is dissolved in water (concentration 225 mg of Metrazol/10 ml of solution), and the solution is administered subcutaneously to groups of five animals each at one or more time intervals of 15, 30, 60, 90, or 120 minutes after administration of the test compound. The number of animal alive 15 minutes after treatment with Metrazol is determined and recorded. The following formula is employed to calculate the percent protection against Metrazol lethality. [formula]\nA dose range determination is performed by substantially the same procedure as the time response determination. In the dose range determination, five groups of 10 animals per group are employed. This determination is generally reserved for those compounds which protect against lethality by greater than 70% at the screening dose employed.\n(§2) The anticonvulsant activity of several of the compounds of this invention as per the SES and MTZ assay procedures is provided in Table 2."}, "mice [2]": {"system": "mice", "test": "phenyl-p-quinone (phenyl-p-benzoquinone) writhing assay in mice, analgesia", "method": "The procedure employed to determine analgetic utility is a modification of the phenyl-p-benzoquinone writhing assay in mice, a standard assay for analgesia [Proc. Soc. Exptl. Bio. […] The solution is administered to the subject mice intraperitoneally at a dose of 10 ml per kg of body weight. A characteristic \"writhe\" an inward rotation of one or more feet with twisting and turning of the trunk, drawing in of the abdominal wall, lordosis and arching of the back, is produced. A total of 28 male mice (Charles River, CD-1), weighing 18 to 30 grams, are employed for a time response. The subject animals receive food and water ad libitum. Test compounds are dissolved in distilled water, or suspended in distilled water containing one drop of a suitable surfactant, such as Tween-80. […] A control group (2 animals per group) receive an equal volume of the vehicle. After the administration of the phenyl-p-quinone, the mice are place separately in one liter beakers, and after five minutes, are observed for ten minutes. The number of writhes for each animal is recorded. The following formula is used to compute the percent inhibition: [formula] The time period with the greatest percent of inhibition is considered the peak time."}, "mice [3]": {"system": "mice", "test": "supramaximal electroshock (SES) assay, anticonvulsant activity", "settings": "Mus musculus, ip", "method": "as §1\nGroups of male mice (Charles River, CD-1) weighing 18 to 30 g are employed in the SES assay. Test compounds are dissolved in distilled water, or if insoluble, suspended in water containing one drop of a surfactant, such as Tween-80. Test compounds are generally administered intraperitoneally at a dose of 10 ml of solution, or suspension, per kg of animal body weight. The output terminals of an A.C. shocker, which delivers 206 volts rms for 300 msec, are placed across the animals' eyes, an electrode paste coating assuring contact of the terminals with the eyes. The test compound is administered and thereafter the subject animals are shocked.\nProtection is expressed as normalized percent inhibition relative to vehicle control. [formula] A time response is carried out using 6 animals per group. Animals are tested at 30, 60 and 120 minutes post drug. Additional time periods are tested if indicated by previous tests. A dose range determination is generally reserved for those compounds which inhibit convulsions by greater than about 45-55% at the screening dose employed at the time the test was performed. When the peak activity time has been determined, a dose response is initiated, using 10 animals per group at that time period.\nas §2"}}, "data": [{"smiles": "O=C(Cn1ccnc1)N1CCC(Oc2c(F)c(F)c(F)c(F)c2F)(c2ccccc2)CC1", "note": "[1-[2-(Imidazol-1-yl)acetyl]-4-(2,3,4,5,6-pentafluorophenoxy)-4-phenylpiperidine]", "values": [{"measurement": "ED50", "setting": "mice [1]", "result": 38, "unit": "mg/kg"}]}, {"smiles": "CNC(=O)N1CCC(Oc2ccc(C(F)(F)F)cc2)(c2ccccc2)CC1", "note": "[1-(N-Methylamino)carbonyl-4-phenyl-4-(4-trifluoromethylphenoxy)piperidine]", "values": [{"measurement": "ED50", "setting": "mice [1]", "result": 41.2, "unit": "mg/kg"}]}, {"smiles": "CC(=O)Oc1ccccc1C(=O)O", "note": "[asprin, reference compound]", "values": [{"measurement": "Analgesic Activity: % Inhibition of writhing at a screening dose of 20 mg/kg, s.c.", "setting": "mice [2]", "result": 33, "unit": "%"}]}, {"smiles": "CNC(=O)N1CCC(Oc2ccc([N+](=O)[O-])cc2)(c2ccccc2)CC1", "note": "[1-(N-Methylamino)carbonyl-4-(4-nitrophenoxy)-4-phenylpiperidine]", "values": [{"measurement": "Analgesic Activity: % Inhibition of writhing at a screening dose of 20 mg/kg, s.c.", "setting": "mice [2]", "result": 34, "unit": "%"}, {"measurement": "ED50", "setting": "mice [1]", "result": 55.2, "unit": "mg/kg"}]}, {"smiles": "CNC(=O)N1CCC(Oc2cccc(C(F)(F)F)c2)(c2ccccc2)CC1", "note": "[1-(N-Methylamino)carbonyl-4-phenyl-4-(3-trifluoromethylphenoxy)piperidine]", "values": [{"measurement": "ED50", "setting": "mice [3]", "result": 43.5, "unit": "mg/kg"}]}, {"smiles": "CC(=O)N1CCC(Oc2cccc(C(F)(F)F)c2)(c2ccccc2)CC1", "note": "[1-Acetyl-4-phenyl-4-(3-trifluoromethylphenoxy)piperidine]", "values": [{"measurement": "Analgesic Activity: % Inhibition of writhing at a screening dose of 20 mg/kg, s.c.", "setting": "mice [2]", "result": 48, "unit": "%"}]}, {"smiles": "CCC1(c2ccccc2)C(=O)NC(=O)NC1=O", "note": "[phenobarbital, reference compound]", "values": [{"measurement": "ED50", "setting": "mice [3]", "result": 8.4, "unit": "mg/kg"}]}, {"smiles": "CNC(=O)N1CCC(Oc2c(F)c(F)c(F)c(F)c2F)(c2ccccc2)CC1", "note": "[1-(N-Methylamino)carbonyl-4-(2,3,4,5,6-pentafluorophenoxy)-4-phenylpiperidine]", "values": [{"measurement": "ED50", "setting": "mice [1]", "result": 64.3, "unit": "mg/kg"}]}, {"smiles": "NC(=O)N1CCC(Oc2ccc([N+](=O)[O-])cc2)(c2ccccc2)CC1", "note": "[1-Aminocarbonyl-4-(4-nitrophenoxy)-4-phenylpiperidine]", "values": [{"measurement": "Analgesic Activity: % Inhibition of writhing at a screening dose of 20 mg/kg, s.c.", "setting": "mice [2]", "result": 42, "unit": "%"}]}, {"smiles": "CC(=O)N1CCC(Oc2c(F)c(F)c(F)c(F)c2F)(c2ccccc2)CC1", "note": "[1-Acetyl-4-(2,3,4,5,6-pentafluorophenoxy)-4-phenylpiperidine]", "values": [{"measurement": "Analgesic Activity: % Inhibition of writhing at a screening dose of 20 mg/kg, s.c.", "setting": "mice [2]", "result": 38, "unit": "%"}, {"measurement": "ED50", "setting": "mice [1]", "result": 60.5, "unit": "mg/kg"}]}, {"smiles": "CC(=O)N1CCC(Oc2cccc(Cl)c2)(c2ccccc2)CC1", "note": "[1-Acetyl-4-(3-chlorophenoxy)-4-phenylpiperidine]", "values": [{"measurement": "Analgesic Activity: % Inhibition of writhing at a screening dose of 20 mg/kg, s.c.", "setting": "mice [2]", "result": 33, "unit": "%"}, {"measurement": "ED50", "setting": "mice [3]", "result": 55.4, "unit": "mg/kg"}]}, {"smiles": "CC(=O)N1CCC(Oc2ccc(C(F)(F)F)cc2)(c2ccccc2)CC1", "note": "[1-Acetyl-4-phenyl-4-(4-trifluoromethylphenoxy)piperidine]", "values": [{"measurement": "Analgesic Activity: % Inhibition of writhing at a screening dose of 20 mg/kg, s.c.", "setting": "mice [2]", "result": 32, "unit": "%"}, {"measurement": "ED50", "setting": "mice [1]", "result": 44.8, "unit": "mg/kg"}, {"measurement": "ED50", "setting": "mice [3]", "result": 32.1, "unit": "mg/kg"}]}]}
